Data reported in patent publication US8841456B2, “1,5-naphthyridine derivative or salt thereof” (FUJIFILM Corporation, priority 2011, dated 2014).
Read-outs that look alike come from different tables or passages of the source.

Key:
[1] = target: T1, human PI3Kα protein (Homo sapiens, UniProt P42336); assay: PI3Kα enzyme assay (ADP-Glo kinase assay); assay type: biochemical; conditions: 3 nM PI3Kα, 50 μM PIP2, 100 μM ATP
T1 construct: purchased Carna Biosciences, Inc; host or cells: Baculovirus expression system
In short: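 Baculovirus-expressed biotinylated human PI3Kα (3 nM) preincubated 15 min with compound in Tris pH 7.5, MgCl2, BSA, then reacted 60 min at 25 °C with 50 μM PIP2 and 100 μM ATP. ADP quantified by ADP-Glo luminescence; IC50 calculated.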

[2] = tested on: Human colon cancer cell line (HCT116); assay: Cell growth inhibition test (Celltiter-Glo); assay type: cell-based; conditions: HCT-116, IC50 class, 72 hours culture, viable cells by Celltiter-Glo
Method: Evaluation of the cell proliferation inhibitory activity of the compound of the present invention was carried out according to the method below. Human colon cancer cell line (HCT116) McCoy's 5A (INVITROGEN)+Final Concentration 10% FBS+GLUTA Max (INVITROGEN) Celltiter-Glo™ Luminescent Cell Viability Assay (Promega Corporation) HCT116 was seeded on a 96-well culture microplate (Corning Inc.) at 750/well (90 uL/well), and a compound for evaluation (final concentration: 25.00 μM to 0.01 μM, 3-fold common ratio 8 points) was added thereto. After culturing in a CO2 incubator (37° C.) for 72 hours, the number of viable cells were calculated by Celltiter-Glo. For the measurement of luminescence intensity, EnVision (PerkinElmer, Inc.) was used. The inhibitory activity of the compound was calculated using IC50 (50% inhibitory concentration). The IC50 was calculated using XLfit (IDBS). The results of IC50 were evaluated according to the following evaluation criteria.

[3] = target: T2, glutathione S-transferase (GST)-fusion human ERK2 protein (Homo sapiens, UniProt P28482); assay: ERK2 enzyme assay (LabChip mobility shift); assay type: biochemical; conditions: 2 nM ERK2, 4.25 μM FL-Peptide 8, 43 μM ATP
T2 construct: purchased Carna Biosciences, Inc; host or cells: E. coli expression system
In short: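 GST-tagged human ERK2 from E. coli, at 2 nM, was preincubated 15 min at room temperature with compound in Hepes pH 7.5 with MgCl2, DTT and Brij35. The reaction ran 120 min at 25 °C with 4.25 μM FL-Peptide 8 and 43 μM ATP (final). Phosphopeptide fraction was measured by mobility-shift separation to give IC50.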

[4] = IC50 class, read-out: PI3Kα Inhibitory Activity
[5] = IC50 class, read-out: ERK2 Inhibitory Activity

T1 sequence (P42336 whole entry): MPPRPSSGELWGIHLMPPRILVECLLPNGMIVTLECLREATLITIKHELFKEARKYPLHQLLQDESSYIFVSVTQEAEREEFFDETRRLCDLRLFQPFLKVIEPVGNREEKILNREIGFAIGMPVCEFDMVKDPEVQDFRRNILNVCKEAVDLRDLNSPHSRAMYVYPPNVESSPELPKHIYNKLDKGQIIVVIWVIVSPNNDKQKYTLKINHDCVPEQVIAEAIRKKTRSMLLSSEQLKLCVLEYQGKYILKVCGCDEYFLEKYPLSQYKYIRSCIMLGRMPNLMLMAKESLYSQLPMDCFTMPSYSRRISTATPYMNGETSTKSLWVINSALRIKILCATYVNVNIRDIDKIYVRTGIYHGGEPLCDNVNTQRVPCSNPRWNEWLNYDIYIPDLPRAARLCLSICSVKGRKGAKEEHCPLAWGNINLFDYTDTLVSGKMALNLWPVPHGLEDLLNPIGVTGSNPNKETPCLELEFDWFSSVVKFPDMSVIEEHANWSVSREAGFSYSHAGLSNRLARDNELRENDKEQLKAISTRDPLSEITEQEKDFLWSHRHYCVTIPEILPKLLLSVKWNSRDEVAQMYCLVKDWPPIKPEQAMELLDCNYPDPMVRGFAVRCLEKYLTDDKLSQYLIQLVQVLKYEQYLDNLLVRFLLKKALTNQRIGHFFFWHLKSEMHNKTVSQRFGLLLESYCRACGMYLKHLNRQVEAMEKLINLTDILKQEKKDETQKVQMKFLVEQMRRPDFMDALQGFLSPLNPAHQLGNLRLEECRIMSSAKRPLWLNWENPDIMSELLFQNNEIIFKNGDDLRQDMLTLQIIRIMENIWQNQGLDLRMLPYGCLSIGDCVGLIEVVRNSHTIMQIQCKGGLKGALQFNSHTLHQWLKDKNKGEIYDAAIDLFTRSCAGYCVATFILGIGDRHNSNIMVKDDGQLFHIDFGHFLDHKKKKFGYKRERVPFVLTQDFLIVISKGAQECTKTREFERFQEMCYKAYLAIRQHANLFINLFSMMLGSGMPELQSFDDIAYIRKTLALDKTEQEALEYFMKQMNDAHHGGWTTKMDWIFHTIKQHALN
T1 sequence (P27986 whole entry partner): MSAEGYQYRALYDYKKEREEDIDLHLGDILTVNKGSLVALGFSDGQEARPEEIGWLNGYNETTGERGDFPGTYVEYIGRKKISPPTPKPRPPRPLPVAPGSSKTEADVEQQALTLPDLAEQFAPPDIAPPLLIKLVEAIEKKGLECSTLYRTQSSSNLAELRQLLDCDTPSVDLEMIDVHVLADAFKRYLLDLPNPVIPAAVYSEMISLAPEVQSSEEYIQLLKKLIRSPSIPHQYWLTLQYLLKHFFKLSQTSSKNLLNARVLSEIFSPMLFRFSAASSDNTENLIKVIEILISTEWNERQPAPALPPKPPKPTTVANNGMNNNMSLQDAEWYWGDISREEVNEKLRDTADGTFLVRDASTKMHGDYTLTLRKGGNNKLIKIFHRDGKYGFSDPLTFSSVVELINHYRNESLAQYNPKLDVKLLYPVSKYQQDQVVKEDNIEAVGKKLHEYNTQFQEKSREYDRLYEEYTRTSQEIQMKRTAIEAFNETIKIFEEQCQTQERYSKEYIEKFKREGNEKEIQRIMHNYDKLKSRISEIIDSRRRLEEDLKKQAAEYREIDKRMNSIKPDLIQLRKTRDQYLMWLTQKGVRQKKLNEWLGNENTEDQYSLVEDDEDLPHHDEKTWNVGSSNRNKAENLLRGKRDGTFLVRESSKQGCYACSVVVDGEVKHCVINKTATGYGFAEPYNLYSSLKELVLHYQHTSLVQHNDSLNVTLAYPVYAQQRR
T2 sequence (P28482 whole entry, the tested form may be a part): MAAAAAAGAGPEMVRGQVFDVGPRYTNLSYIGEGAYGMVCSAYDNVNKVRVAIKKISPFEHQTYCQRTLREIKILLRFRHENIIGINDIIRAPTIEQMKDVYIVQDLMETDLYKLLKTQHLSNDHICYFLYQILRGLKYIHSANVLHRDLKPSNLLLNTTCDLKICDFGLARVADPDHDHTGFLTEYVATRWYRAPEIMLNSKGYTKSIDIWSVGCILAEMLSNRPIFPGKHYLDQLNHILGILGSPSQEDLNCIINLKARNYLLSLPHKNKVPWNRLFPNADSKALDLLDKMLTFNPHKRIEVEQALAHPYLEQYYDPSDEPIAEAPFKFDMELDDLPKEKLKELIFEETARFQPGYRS

| SMILES | IC50 [1, 4] [nM] | IC50 [2] [nM] | IC50 [3, 5] [nM] | IC50 ([1]; read-out: PI3Kα, IC50) [nM] | IC50 ([3]; read-out: ERK2, IC50) [nM] |
| --- | --- | --- | --- | --- | --- |
| CN(C)CC(C)(C)Cn1cc(-c2cnc3ccc(NC(=O)NC4CCCC4)nc3c2)cn1 [Compound 0243] | < 100 | < 1000 | 100 to 1000 | – | – |
| O=C(Nc1ccc2ncc(N3CCN(c4ccncc4)CC3)cc2n1)NC1CCCC1 [Compound 0158] | < 100 | < 1000 | 100 to 1000 | – | – |
| O=C(Nc1ccc2ncc(-c3ccccn3)cc2n1)NC1CCCC1 [Compound 0136] | < 100 | 1000 to 10000 | < 100 | – | – |
| O=C(Nc1ccc2ncc(-c3cccc(CO)c3)cc2n1)NC1CCCC1 [Compound 0041] | 100 to 1000 | 1000 to 10000 | < 100 | – | – |
| O=C(Nc1ccc2ncc(N3CCN(c4ccccn4)CC3)cc2n1)NC1CCCC1 [Compound 0154] | 100 to 1000 | < 1000 | 100 to 1000 | – | – |
| O=C(Nc1ccc2ncc(N3CCN(c4cccnc4)CC3)cc2n1)NC1CCCC1 [Compound 0157] | < 100 | < 1000 | 100 to 1000 | – | – |
| CC(=O)N1CCN(c2cnc3ccc(NC(=O)NC4CCCC4)nc3c2)CC1 [Compound 0148] | < 100 | 1000 to 10000 | 100 to 1000 | – | – |
| O=C(Nc1ccc2ncc(N3CCOC3=O)cc2n1)NC1CCCC1 [Compound 0046] | < 100 | 1000 to 10000 | 100 to 1000 | – | – |
| CN(C)CCn1cc(-c2cnc3ccc(NC(=O)NC4CCCC4)nc3c2)cn1 [Compound 0018] | < 100 | – | 100 to 1000 | – | – |
| O=C(Nc1ccc2ncc(-c3ccc(O)cc3)cc2n1)NC1CCCC1 [Compound 0034] | < 100 | – | < 100 | – | – |
| COc1ccc(Nc2cnc3ccc(NC(=O)NC4CCCC4)nc3c2)cc1 [Compound 0028] | < 100 | – | > 10000 | – | – |
| O=C(Nc1ccc2ncc(-c3ccc4c(c3)OCO4)cc2n1)NC1CCCC1 [Compound 0120] | 100 to 1000 | – | 100 to 1000 | – | – |
| COCCNCCn1cc(-c2cnc3ccc(NC(=O)NC4CCCC4)nc3c2)cn1 [Compound 0047] | < 100 | – | 100 to 1000 | – | – |
| O=C(NCc1cccnc1)Nc1ccc2ncc(-c3cn[nH]c3)cc2n1 [Compound 0102] | 1000 to 10000 | – | < 100 | – | – |
| O=C(Nc1ccc2ncc(-c3cnn(CCCCN4CCOCC4)c3)cc2n1)NC1CCCC1 [Compound 0207] | < 100 | – | < 100 | – | – |
| COc1nc2ccc(NC(=O)NC3CCCC3)nc2cc1-c1cnn(C)c1 [Compound 0234] | 1000 to 10000 | – | > 10000 | – | – |
| CN(C)CCOc1cc(-c2cnc3ccc(NC(=O)NC4CCCC4)nc3c2)ccc1O [Compound 0016] | < 100 | – | < 100 | – | – |
| O=C(NCCCCc1ccc(F)cc1)Nc1ccc2ncc(-c3cn[nH]c3)cc2n1 [Compound 0172] | 100 to 1000 | – | < 100 | – | – |
| O=C(Nc1ccc2ncc(-c3cnn(CCCN4CC[C@H](F)C4)c3)cc2n1)NC1CCCC1 [Compound 0247] | < 100 | – | < 100 | – | – |
| O=C(Nc1ccc2ncc(-c3cn[nH]c3)cc2n1)NC1CCOC1 (stereo not shown) [Compound 0075] | 100 to 1000 | – | < 100 | – | – |
| O=C(NCC1CCOC1)Nc1ccc2ncc(-c3cn[nH]c3)cc2n1 (stereo not shown) [Compound 0197] | 100 to 1000 | – | < 100 | – | – |
| CN1CCC(NC(=O)Nc2ccc3ncc(-c4cn[nH]c4)cc3n2)CC1 [Compound 0078] | 1000 to 10000 | – | 100 to 1000 | – | – |
| COCCNc1cnc2ccc(NC(=O)NC3CCCC3)nc2c1 [Compound 0010] | < 100 | – | 1000 to 10000 | – | – |
| Cc1c(-c2cnn(C)c2)cnc2ccc(NC(=O)NC3CCCC3)nc12 [Compound 0237] | < 100 | – | < 100 | – | – |

| SMILES | IC50 [1, 4] [nM] | IC50 [2] [nM] | IC50 [3, 5] [nM] | IC50 ([1]; read-out: PI3Kα, IC50) [nM] | IC50 ([3]; read-out: ERK2, IC50) [nM] |
| --- | --- | --- | --- | --- | --- |
| COCCn1cc(-c2cnc3ccc(NC(=O)NC4CCCC4)nc3c2)cn1 [Compound 0032] | < 100 | – | < 100 | – | – |
| O=C(Nc1ccc2ncc(-c3cnn(CCCCN4C(=O)c5ccccc5C4=O)c3)cc2n1)NC1CCCC1 [Compound 0206] | < 100 | – | 100 to 1000 | – | – |
| COCCN(CCOC)CCn1cc(-c2cnc3ccc(NC(=O)NC4CCCC4)nc3c2)cn1 [Compound 0048] | < 100 | – | < 100 | – | – |
| Cc1n[nH]c(C)c1-c1cnc2ccc(NC(=O)NC3CCCC3)nc2c1 [Compound 0049] | < 100 | – | < 100 | – | – |
| O=C(NCc1ccncc1)Nc1ccc2ncc(-c3cn[nH]c3)cc2n1 [Compound 0103] | 100 to 1000 | – | 100 to 1000 | – | – |
| COC1CN(c2cnc3ccc(NC(=O)NC4CCCC4)nc3c2)C1 [Compound 0242] | 100 to 1000 | – | 100 to 1000 | – | – |
| O=C(NCCn1cnc2ccccc21)Nc1ccc2ncc(-c3cn[nH]c3)cc2n1 [Compound 0111] | 1000 to 10000 | – | 100 to 1000 | – | – |
| O=C(Nc1ccc2ncc(-c3cn[nH]c3)cc2n1)NC1CCC(Oc2ccccc2)C1 (stereo not shown) [Compound 0092] | < 100 | – | < 100 | – | – |
| CN1CCN(CCCn2cc(-c3cnc4ccc(NC(=O)NC5CCCC5)nc4c3)cn2)CC1 [Compound 0232] | < 100 | – | < 100 | – | – |
| COc1cc(-c2cnc3ccc(NC(=O)NC4CCCC4)nc3c2)ccc1O [Compound 0001] | < 100 | – | < 100 | – | – |
| O=C(Nc1ccc2ncc(-c3cn[nH]c3)cc2n1)N[C@@H]1CCC[C@H]1OCc1ccccc1 [Compound 0160] | 1000 to 10000 | – | < 100 | – | – |
| CC1(NC(=O)Nc2ccc3ncc(-c4cnn(C5CCNCC5)c4)cc3n2)CCCC1 [Compound 0254] | < 100 | – | 100 to 1000 | – | – |
| O=C(NC[C@@H]1CCCO1)Nc1ccc2ncc(-c3cn[nH]c3)cc2n1 [Compound 0193] | 100 to 1000 | – | < 100 | – | – |
| COc1c(-c2cnn(C)c2)cnc2ccc(NC(=O)NC3CCCC3)nc12 [Compound 0235] | < 100 | – | < 100 | – | – |
| CC1(NC(=O)Nc2ccc3ncc(-c4cn[nH]c4)cc3n2)CCC1 [Compound 0195] | < 100 | – | 100 to 1000 | – | – |
| CN(CCNC(=O)Nc1ccc2ncc(-c3cn[nH]c3)cc2n1)Cc1ccccc1 [Compound 0108] | 100 to 1000 | – | < 100 | – | – |
| O=C(Nc1ccc2ncc(-c3cn[nH]c3)cc2n1)NC1CCCC1 [Compound 0137] | < 100 | – | < 100 | 10 | 7 |
| Cc1noc(C)c1-c1cnc2ccc(NC(=O)NC3CCCC3)nc2c1 [Compound 0050] | 100 to 1000 | – | 100 to 1000 | – | – |
| O=C(Nc1ccc2ncc(-c3ccc(F)cc3)cc2n1)NC1CCCC1 [Compound 0020] | 100 to 1000 | – | < 100 | – | – |
| O=C(Nc1ccc2ncc(-c3ccc(CO)cc3)cc2n1)NC1CCCC1 [Compound 0042] | 100 to 1000 | – | < 100 | – | – |
| O=C(Nc1ccc2ncc(-n3ccnc3)cc2n1)NC1CCCC1 [Compound 0259] | 100 to 1000 | – | < 100 | – | – |
| S=C(Nc1ccc2ncc(-c3cnn(CCN4CCOCC4)c3)cc2n1)NC1CCCC1 [Compound 0138] | < 100 | – | < 100 | – | – |
| O=C(Nc1ccc2ncc(N3CCNCC3)cc2n1)NC1CCCC1 [Compound 0013] | 100 to 1000 | – | 100 to 1000 | – | – |
| O=C(Nc1ccc2ncc(Nc3cc[nH]n3)cc2n1)NC1CCCC1 [Compound 0126] | < 100 | – | 100 to 1000 | – | – |
